Results published in ChEMBL document CHEMBL4725398 (Bioorg Med Chem, 2020).

How the values were obtained:
SW-620 = experiment: cells; conditions: Homo sapiens, SW-620, 48 h
Description: Antiproliferation activity against EGFR-negative human SW620 cells assessed as reduction in cell viability incubated incubated for 48 hrs by MTT assay

NCI-H1975 [1] = experiment: cells; conditions: Homo sapiens, NCI-H1975, 48 h
A-431 = experiment: cells; conditions: Homo sapiens, A-431, 48 h
Description: Antiproliferation activity against human A431 cells assessed as reduction in cell viability incubated incubated for 48 hrs by MTT assay

[2] = target: Epidermal growth factor receptor (Homo sapiens, UniProt P00533, L858R/T790M); experiment: Inhibition of recombinant human EGFR T790M/L858R mutant expressed in baculovirus insect cell expression system in presence of ATP preincubated 5 mins measured for 30 mins by detection reagent based HTRF analysis
Epidermal growth factor receptor (Homo sapiens, UniProt P00533, L858R/T790M), sequence (P00533 25-1210 T790M/L858R limits assumed): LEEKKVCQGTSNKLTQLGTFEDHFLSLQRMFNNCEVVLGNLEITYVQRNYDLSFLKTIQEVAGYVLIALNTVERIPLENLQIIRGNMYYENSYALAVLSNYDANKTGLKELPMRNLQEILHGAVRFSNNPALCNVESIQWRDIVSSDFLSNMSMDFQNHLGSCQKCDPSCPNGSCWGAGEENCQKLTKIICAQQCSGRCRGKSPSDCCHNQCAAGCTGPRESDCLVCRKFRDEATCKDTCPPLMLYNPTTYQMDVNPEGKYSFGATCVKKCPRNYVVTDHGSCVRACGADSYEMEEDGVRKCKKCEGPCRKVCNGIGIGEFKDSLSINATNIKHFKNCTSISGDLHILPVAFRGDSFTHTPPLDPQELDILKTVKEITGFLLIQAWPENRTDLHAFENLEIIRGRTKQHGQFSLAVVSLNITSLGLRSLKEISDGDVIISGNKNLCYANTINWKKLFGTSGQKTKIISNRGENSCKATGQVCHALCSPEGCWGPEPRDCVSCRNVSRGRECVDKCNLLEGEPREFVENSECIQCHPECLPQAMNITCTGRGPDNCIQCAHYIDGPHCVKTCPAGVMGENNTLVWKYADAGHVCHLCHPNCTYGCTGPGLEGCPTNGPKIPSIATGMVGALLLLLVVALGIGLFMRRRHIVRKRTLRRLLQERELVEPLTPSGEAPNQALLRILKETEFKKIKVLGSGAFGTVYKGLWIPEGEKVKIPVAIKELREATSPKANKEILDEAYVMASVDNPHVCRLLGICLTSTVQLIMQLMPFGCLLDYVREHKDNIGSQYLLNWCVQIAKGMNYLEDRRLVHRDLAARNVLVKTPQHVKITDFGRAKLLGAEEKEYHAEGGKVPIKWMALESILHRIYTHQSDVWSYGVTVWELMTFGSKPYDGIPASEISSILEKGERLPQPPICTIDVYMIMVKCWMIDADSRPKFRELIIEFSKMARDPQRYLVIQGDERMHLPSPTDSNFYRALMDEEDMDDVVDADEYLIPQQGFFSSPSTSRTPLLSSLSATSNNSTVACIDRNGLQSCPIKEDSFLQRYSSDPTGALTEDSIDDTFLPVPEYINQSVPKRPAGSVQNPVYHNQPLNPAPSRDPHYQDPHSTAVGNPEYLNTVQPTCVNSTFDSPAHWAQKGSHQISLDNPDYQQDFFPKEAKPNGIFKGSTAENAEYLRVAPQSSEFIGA

[3] = target: Epidermal growth factor receptor (Homo sapiens, UniProt P00533); experiment: Inhibition of wild type EGFR (unknown origin) in presence of ATP preincubated 5 mins measured for 30 mins by detection reagent based HTRF analysis
Epidermal growth factor receptor (Homo sapiens, UniProt P00533), sequence (P00533 whole entry): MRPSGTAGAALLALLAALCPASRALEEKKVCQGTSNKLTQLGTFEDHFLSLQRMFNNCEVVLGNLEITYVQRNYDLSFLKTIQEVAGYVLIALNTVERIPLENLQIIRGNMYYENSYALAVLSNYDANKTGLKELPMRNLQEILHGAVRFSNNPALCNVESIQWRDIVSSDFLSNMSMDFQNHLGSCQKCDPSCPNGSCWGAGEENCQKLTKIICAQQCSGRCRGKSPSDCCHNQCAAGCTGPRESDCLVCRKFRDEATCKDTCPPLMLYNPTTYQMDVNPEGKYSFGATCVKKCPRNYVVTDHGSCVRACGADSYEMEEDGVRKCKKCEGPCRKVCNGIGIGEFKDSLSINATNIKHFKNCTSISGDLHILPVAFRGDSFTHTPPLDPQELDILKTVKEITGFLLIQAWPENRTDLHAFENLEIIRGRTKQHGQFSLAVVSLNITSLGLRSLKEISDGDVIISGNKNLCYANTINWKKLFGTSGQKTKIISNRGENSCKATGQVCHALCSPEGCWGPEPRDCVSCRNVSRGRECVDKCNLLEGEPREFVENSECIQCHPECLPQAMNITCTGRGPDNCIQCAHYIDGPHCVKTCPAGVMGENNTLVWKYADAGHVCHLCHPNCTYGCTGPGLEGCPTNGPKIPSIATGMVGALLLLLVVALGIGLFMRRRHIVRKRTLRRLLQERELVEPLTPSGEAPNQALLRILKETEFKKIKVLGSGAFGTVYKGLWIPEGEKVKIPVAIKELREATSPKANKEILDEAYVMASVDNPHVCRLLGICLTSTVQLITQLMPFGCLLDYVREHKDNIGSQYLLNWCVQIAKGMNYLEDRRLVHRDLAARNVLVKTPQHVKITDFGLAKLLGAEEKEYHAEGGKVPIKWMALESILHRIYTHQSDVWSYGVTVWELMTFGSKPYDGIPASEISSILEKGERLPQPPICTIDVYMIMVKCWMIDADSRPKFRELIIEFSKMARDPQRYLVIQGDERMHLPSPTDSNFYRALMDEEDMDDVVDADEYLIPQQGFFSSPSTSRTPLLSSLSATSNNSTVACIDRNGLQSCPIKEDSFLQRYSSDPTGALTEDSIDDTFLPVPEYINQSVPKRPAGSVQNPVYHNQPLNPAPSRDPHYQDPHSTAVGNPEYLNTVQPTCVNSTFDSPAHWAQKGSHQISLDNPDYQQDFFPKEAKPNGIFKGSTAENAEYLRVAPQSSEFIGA

NCI-H1975 [4] = experiment: Cell cycle arrest in human NCI-H1975 cells assessed as accumulation at G1 phase at 0.5 uM incubated for 24 hrs measured after 2 days by propidium iodide staining based flow cytometric analysis (reference value: 41.92 %); assay type: functional
NCI-H1975 [5] = experiment: Cell cycle arrest in human NCI-H1975 cells assessed as accumulation at S phase at 0.5 uM incubated for 24 hrs measured after 2 days by propidium iodide staining based flow cytometric analysis (reference value: 24.04 %); assay type: functional
NCI-H1975 [6] = experiment: Cell cycle arrest in human NCI-H1975 cells assessed as diploid cell at 0.25 uM incubated for 24 hrs measured after 2 days by propidium iodide staining based flow cytometric analysis (reference value: 100 %); assay type: functional
NCI-H1975 [7] = experiment: Cell cycle arrest in human NCI-H1975 cells assessed as accumulation at G2 phase at 1 uM incubated for 24 hrs measured after 2 days by propidium iodide staining based flow cytometric analysis (reference value: 34.04 %); assay type: functional
COS-7 = experiment: Cytotoxicity against African green monkey COS7 cells assessed as decrease in cell viability incubated incubated for 48 hrs by MTT assay; assay type: cell-based; conditions: Chlorocebus aethiops, COS-7, 48 h
NCI-H1975 [8] = experiment: Cell cycle arrest in human NCI-H1975 cells assessed as diploid cell at 0.5 uM incubated for 24 hrs measured after 2 days by propidium iodide staining based flow cytometric analysis (reference value: 100 %); assay type: functional
NCI-H1975 [9] = experiment: Cell cycle arrest in human NCI-H1975 cells assessed as accumulation at G1 phase at 1 uM incubated for 24 hrs measured after 2 days by propidium iodide staining based flow cytometric analysis (reference value: 41.92 %); assay type: functional
NCI-H1975 [10] = experiment: Cell cycle arrest in human NCI-H1975 cells assessed as accumulation at G2 phase at 0.5 uM incubated for 24 hrs measured after 2 days by propidium iodide staining based flow cytometric analysis (reference value: 34.04 %); assay type: functional
NCI-H1975 [11] = experiment: Cell cycle arrest in human NCI-H1975 cells assessed as accumulation at G2/G1 phase at 0.5 uM incubated for 24 hrs measured after 2 days by propidium iodide staining based flow cytometric analysis (reference value: 1.89 %); assay type: functional
NCI-H1975 [12] = experiment: Cell cycle arrest in human NCI-H1975 cells assessed as accumulation at G2/G1 phase at 0.25 uM incubated for 24 hrs measured after 2 days by propidium iodide staining based flow cytometric analysis (reference value: 1.89 %); assay type: functional
NCI-H1975 [13] = experiment: Cell cycle arrest in human NCI-H1975 cells assessed as accumulation at G1 phase at 0.25 uM incubated for 24 hrs measured after 2 days by propidium iodide staining based flow cytometric analysis (reference value: 41.92 %); assay type: functional
NCI-H1975 [14] = experiment: Cell cycle arrest in human NCI-H1975 cells assessed as increase in accumulation at G0/G1 phase at 0.25 to 1 uM treated for 24 hrs measured after 2 days by propidium iodide staining based flow cytometric analysis (reference value: 41.92%); assay type: functional; conditions: dose microM 0.25-1
NCI-H1975 [15] = experiment: Cell cycle arrest in human NCI-H1975 cells assessed as accumulation at G2/G1 phase at 1 uM incubated for 24 hrs measured after 2 days by propidium iodide staining based flow cytometric analysis (reference value: 1.89 %); assay type: functional
NCI-H1975 [16] = experiment: Cell cycle arrest in human NCI-H1975 cells assessed as diploid cell at 1 uM incubated for 24 hrs measured after 2 days by propidium iodide staining based flow cytometric analysis (reference value: 100 %); assay type: functional
NCI-H1975 [17] = experiment: Cell cycle arrest in human NCI-H1975 cells assessed as decrease in accumulation at G2/M phase at 0.25 to 1 uM incubated for 24 hrs measured after 2 days by propidium iodide staining based flow cytometric analysis (reference value: 34.04%); assay type: functional; set-up: scale not given: the % may be the effect or the level left; conditions: dose microM 0.25-1
NCI-H1975 [18] = experiment: Cell cycle arrest in human NCI-H1975 cells assessed as accumulation at S phase at 1 uM incubated for 24 hrs measured after 2 days by propidium iodide staining based flow cytometric analysis (reference value: 24.04 %); assay type: functional
NCI-H1975 [19] = experiment: Cell cycle arrest in human NCI-H1975 cells assessed as accumulation at G2 phase at 0.25 uM incubated for 24 hrs measured after 2 days by propidium iodide staining based flow cytometric analysis (reference value: 34.04 %); assay type: functional
NCI-H1975 [20] = experiment: Cell cycle arrest in human NCI-H1975 cells assessed as accumulation at S phase at 0.25 uM incubated for 24 hrs measured after 2 days by propidium iodide staining based flow cytometric analysis (reference value: 24.04 %); assay type: functional

IC50 (NCI-H1975 [1]) [µM] | IC50 (A-431) [µM] | SMILES | IC50 (SW-620) [µM] | also measured
16.9 | 2.2 | C=C(Cl)C(=O)Nc1cc(Nc2ncc(Cl)c(-c3cn(C)c4ccccc34)n2)ccc1N(C)C | – | –
4.18 | 7.13 | C=C(F)C(=O)Nc1cccc(Nc2nc(Nc3ccc(N4CCN(C(C)=O)CC4)c(Cl)c3)ncc2Cl)c1 | – | –
3.82 | 2.37 | C=C(C)C(=O)Nc1cccc(Nc2nc(Nc3ccc(N4CCN(C(C)=O)CC4)cc3OC)ncc2Cl)c1 | – | –
0.34 | 6.5 | C=C(F)C(=O)Nc1cccc(Nc2nc(Nc3ccc(N4CCN(C(C)=O)CC4)cc3)ncc2Cl)c1 | 3.61 | –
2.5 | 1.47 | C=C(Cl)C(=O)Nc1cccc(Oc2nc(Nc3ccc(N4CCN(C(C)=O)CC4)c(C(F)(F)F)c3)ncc2Cl)c1 | – | –
6.56 | 7.09 | C=C(F)C(=O)Nc1cccc(Nc2nc(Nc3ccc(N4CCN(C(C)=O)CC4)c(F)c3)ncc2Cl)c1 | – | –
5.79 | 6.16 | C=C(C(=O)Nc1cccc(Nc2nc(Nc3ccc(N4CCN(C(C)=O)CC4)cc3)ncc2Cl)c1)c1ccccc1 | – | –
3.32 | 1.89 | C=C(Cl)C(=O)Nc1cccc(Oc2nc(Nc3ccc(N4CCN(C(C)=O)CC4)cc3OC)ncc2Cl)c1 | – | –
3.12 | 4.44 | C=C(Cl)C(=O)Nc1cccc(Nc2nc(Nc3ccc(N4CCN(C(C)=O)CC4)cc3OC)ncc2Cl)c1 | – | –
0.42 | 1.14 | C=C(Cl)C(=O)Nc1cccc(Nc2nc(Nc3ccc(N4CCN(C(C)=O)CC4)c(F)c3)ncc2Cl)c1 | – | –
1.82 | 1.58 | C=C(F)C(=O)Nc1cccc(Nc2nc(Nc3ccc(N4CCN(C(C)=O)CC4)cc3OC)ncc2Cl)c1 | – | –
> 50 | > 50 | C=C(F)C(=O)Nc1cc(Nc2ncc(Cl)c(-c3cn(C)c4ccccc34)n2)ccc1N(C)C | – | –
16.7 | 11 | C=C(F)C(=O)Nc1cccc(Oc2nc(Nc3ccc(N4CCN(C)CC4)cc3OC)ncc2Cl)c1 | – | –
7.03 | > 50 | C=C(F)C(=O)Nc1cccc(Oc2nc(Nc3ccc(N4CCN(C(C)=O)CC4)cc3OC)ncc2Cl)c1 | – | –
9.88 | 2.86 | C=C(F)C(=O)Nc1cccc(Nc2nc(Nc3ccc(N4CCN(C(C)=O)CC4)c(C(F)(F)F)c3)ncc2Cl)c1 | – | –
5.57 | 10.6 | C=C(C)C(=O)Nc1cccc(Nc2nc(Nc3ccc(N4CCN(C(C)=O)CC4)cc3)ncc2Cl)c1 | – | –
0.51 | 6.01 | C=CC(=O)Nc1cccc(Nc2nc(Nc3ccc(N4CCN(C(C)=O)CC4)cc3OC)ncc2C(F)(F)F)c1 [ROCILETINIB] | 10.5 | IC50 (COS-7): 7.39 µM
20.5 | 18.1 | C=C(F)C(=O)Nc1cccc(Nc2nc(Nc3ccc(N4CCN(C(C)=O)CC4)nc3)ncc2Cl)c1 | – | –
13.6 | 1.06 | C=C(Cl)C(=O)Nc1cccc(Oc2nc(Nc3ccc(N4CCN(C)CC4)cc3OC)ncc2Cl)c1 | – | –

SMILES | IC50 (NCI-H1975 [1]) [µM] | IC50 (A-431) [µM] | IC50 (SW-620) [µM] | also measured
C=C(Cl)C(=O)Nc1cccc(Nc2nc(Nc3ccc(N4CCN(C(C)=O)CC4)cc3OC)ncc2C(F)(F)F)c1 | 0.2 | 3.68 | 3.99 | IC50 [2]: 0.016 µM; IC50 [3]: 0.257 µM
C=C(Cl)C(=O)Nc1cccc(Nc2nc(Nc3ccc(N4CCN(C(C)=O)CC4)cc3)ncc2Cl)c1 | 0.75 | 3.14 | 29.2 | Activity (NCI-H1975 [4]): 58.39%; Activity (NCI-H1975 [5]): 19.43%; Activity (NCI-H1975 [6]): 98.52%; Activity (NCI-H1975 [7]): 19.15%; IC50 (COS-7): 10.4 µM; Activity (NCI-H1975 [8]): 98.81%; Activity (NCI-H1975 [9]): 63.96%; IC50 [2]: 0.0039 µM; Activity (NCI-H1975 [10]): 22.18%; Activity (NCI-H1975 [11]): 1.94%; Activity (NCI-H1975 [12]): 1.95%; Activity (NCI-H1975 [13]): 54.06%; IC50 [3]: 0.07 µM; Activity (NCI-H1975 [14]): 58.39%; Activity (NCI-H1975 [15]): 1.89%; Activity (NCI-H1975 [16]): 99.81%; Activity (NCI-H1975 [17]): 22.18%; Activity (NCI-H1975 [18]): 16.89%; Activity (NCI-H1975 [19]): 24.27%; Activity (NCI-H1975 [20]): 21.67%
C=C(Cl)C(=O)Nc1cccc(Nc2nc(Nc3ccc(N4CCN(C(C)=O)CC4)cc3Cl)ncc2Cl)c1 | 1.72 | 1.83 | 3.02 | IC50 (COS-7): 14.9 µM; IC50 [2]: 0.047 µM; IC50 [3]: 0.301 µM
C=C(Cl)C(=O)Nc1cccc(Oc2nc(Nc3ccc(N4CCN(C(C)=O)CC4)cc3)ncc2Cl)c1 | 1.15 | 0.62 | 4.6 | IC50 [2]: 0.013 µM; IC50 [3]: 0.13 µM
C=C(Cl)C(=O)Nc1cccc(Nc2nc(Nc3ccc(N4CCN(C(C)=O)CC4)c(Cl)c3)ncc2Cl)c1 | 1.02 | 0.14 | 2.34 | IC50 (COS-7): 7.22 µM; IC50 [2]: 0.0032 µM; IC50 [3]: 0.053 µM
C=C(Cl)C(=O)Nc1cccc(Nc2nc(Nc3ccc(N4CCN(C(C)=O)CC4)nc3)ncc2Cl)c1 | 1.64 | 0.87 | 2.41 | IC50 [2]: 0.0075 µM; IC50 [3]: 0.13 µM
C=C(Cl)C(=O)Nc1cccc(Nc2nc(Nc3ccc(N4CCN(C(C)=O)CC4)c(C)c3)ncc2Cl)c1 | 0.18 | 1.3 | 2.07 | IC50 (COS-7): 5.4 µM; IC50 [2]: 0.0026 µM; IC50 [3]: 0.051 µM
